Columns and labels:
[1] = system: HEK293 cells; experiment: Preliminary screening as DNA vectors, GFP transfection of HEK293 cells; type: cell-based; details: HEK293 cells; lipid/DOPE liposome with 75 ng plasmid DNA (psin-EGFP-IRES-Puro); number of cells expressing GFP divided by total number of nuclei (Hoechst)
How it was run: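 First, amino lipid and DOPE were vortexed in sodium acetate buffer (pH 5.6) to form liposomes. Next, these were held with 75 ng EGFP plasmid at room temperature for 30 min. Finally, HEK293 cells were added, cultured at 37° C., Hoechst-stained, and GFP+/total nuclei scored by imaging.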

[2] = system: HEK293 cells; experiment: Preliminary screening as mRNA vectors, EGFP mRNA transfection of HEK293 cells; type: cell-based; details: HEK293 cells, 96-well plates, EGFP mRNA 50 ng per well; percentage of GFP fluorescent cells relative to total number of cells (Hoechst)
How it was run: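 Screening format: EGFP mRNA transfection (50 ng/well) into HEK293 in 10% FBS-supplemented DMEM. Percent green fluorescent cells, normalised to Hoechst nuclear count, gave the value; Lipofectamine2000 was the reference transfectant.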

SMILES: CCCCCCCCCCCCCCCNc1nc(NCCCCCC)nc(NCCCN(C)C)n1 [Compound N6N15D6]
- Absolute DNA transfection efficiency in HEK293 cells [1]: 0.3%
- Absolute mRNA transfection efficiency in HEK293 cells [2]: 0.3%

SMILES: CCCCCCCCCCCCNc1nc(NCCCCCCCCCCC)nc(NCCN2CCN(C)CC2)n1 [Compound N11N12D5]
- Absolute DNA transfection efficiency in HEK293 cells [1]: 0.0%
- Absolute mRNA transfection efficiency in HEK293 cells [2]: 8.0%

SMILES: CCCCCCCCCNc1nc(NCCCCCCCCC)nc(NCCN2CCOCC2)n1 [Compound N9N9D2]
- Absolute DNA transfection efficiency in HEK293 cells [1]: 0.0%
- Absolute mRNA transfection efficiency in HEK293 cells [2]: 0.1%

SMILES: CCCCCCCCCCCCCCCSc1nc(NCCN2CCN(C)CC2)nc(SCCCCCCCCCCC)n1 [Compound S11S15D5]
- Absolute DNA transfection efficiency in HEK293 cells [1]: 4.8%
- Absolute mRNA transfection efficiency in HEK293 cells [2]: 17.4%

SMILES: CCCCCCCCCCCCCCCCCCSc1nc(NCCN2CCOCC2)nc(SCCCCCCCC)n1 [Compound S8S18D2]
- Absolute DNA transfection efficiency in HEK293 cells [1]: 0.9%
- Absolute mRNA transfection efficiency in HEK293 cells [2]: 0.0%

SMILES: CCCCCCCCCCCCCCCCNc1nc(NCCCCCC)nc(NCCN2CCN(C)CC2)n1 [Compound N6N16D5]
- Absolute DNA transfection efficiency in HEK293 cells [1]: 0.0%
- Absolute mRNA transfection efficiency in HEK293 cells [2]: 0.1%

SMILES: CCCCCCCCCCCCCCCCNc1nc(NCCCCCCC)nc(NCCN2CCCC2)n1 [Compound N7N16D3]
- Absolute DNA transfection efficiency in HEK293 cells [1]: 2.3%
- Absolute mRNA transfection efficiency in HEK293 cells [2]: 1.3%

SMILES: CCCCCCNc1nc(NCCCCCC)nc(NCCN2CCN(C)CC2)n1 [Compound N6N6D5]
- Absolute DNA transfection efficiency in HEK293 cells [1]: 0.0%
- Absolute mRNA transfection efficiency in HEK293 cells [2]: 0.0%

SMILES: CCCCCCCCCCCCNc1nc(NCCCCCCCCCCCC)nc(NCCN2CCCC2)n1 [Compound N12N12D3]
- Absolute DNA transfection efficiency in HEK293 cells [1]: 1.9%
- Absolute mRNA transfection efficiency in HEK293 cells [2]: 3.8%

SMILES: CCCCCCCCCCCCCNc1nc(NCCCCCCCC)nc(NCCN2CCOCC2)n1 [Compound N8N13D2]
- Absolute DNA transfection efficiency in HEK293 cells [1]: 0.0%
- Absolute mRNA transfection efficiency in HEK293 cells [2]: 0.1%

SMILES: CCCCCCCCCCCCCCCNc1nc(NCCCCCCCCC)nc(NCCN2CCCCC2)n1 [Compound N9N15D4]
- Absolute DNA transfection efficiency in HEK293 cells [1]: 0.0%
- Absolute mRNA transfection efficiency in HEK293 cells [2]: 0.6%

SMILES: CCCCCCCCCCCCCNc1nc(NCCCCCCC)nc(NCCN2CCCC2)n1 [Compound N7N13D3]
- Absolute DNA transfection efficiency in HEK293 cells [1]: 0.0%
- Absolute mRNA transfection efficiency in HEK293 cells [2]: 7.8%

SMILES: CCCCCCCCCCCSc1nc(NCCN2CCOCC2)nc(SCCCCCCCCC)n1 [Compound S9S11D2]
- Absolute DNA transfection efficiency in HEK293 cells [1]: 17.3%
- Absolute mRNA transfection efficiency in HEK293 cells [2]: 3.3%

SMILES: CCCCCCCCCCCCN(CCCCCCCCCCCC)c1nc(NCCN(CC)CC)nc(N(CCCCCCCCCCCC)CCCCCCCCCCCC)n1 [2N12^2N12D7]
- Absolute DNA transfection efficiency in HEK293 cells [1]: 0.0%
- Absolute mRNA transfection efficiency in HEK293 cells [2]: 0.3%

SMILES: CCCCCCCCCCCCCNc1nc(NCCCCCCC)nc(NCCN2CCOCC2)n1 [Compound N7N13D2]
- Absolute DNA transfection efficiency in HEK293 cells [1]: 0.1%
- Absolute mRNA transfection efficiency in HEK293 cells [2]: 0.0%

SMILES: CCCCCCCCCCCCCCCCCCNc1nc(NCCCCCCCCCCCCCCC)nc(NCCN(C)C)n1 [Compound N15N18D1]
- Absolute DNA transfection efficiency in HEK293 cells [1]: 0.0%
- Absolute mRNA transfection efficiency in HEK293 cells [2]: 0.0%

SMILES: CCCCCCCCCCCCCCCCNc1nc(NCCCCCCC)nc(NCCN2CCCCC2)n1 [Compound N7N16D4]
- Absolute DNA transfection efficiency in HEK293 cells [1]: 0.0%
- Absolute mRNA transfection efficiency in HEK293 cells [2]: 0.0%

SMILES: CCCCCCCCCCCCNc1nc(NCCN(CC)CC)nc(N(CCCCCCCCCCCC)CCCCCCCCCCCC)n1 [N12^2N12D7]
- Absolute DNA transfection efficiency in HEK293 cells [1]: 2.2%
- Absolute mRNA transfection efficiency in HEK293 cells [2]: 2.0%

SMILES: CCCCCCCCCCCCCNc1nc(NCCCCCCCC)nc(NCCN(C)C)n1 [Compound N8N13D1]
- Absolute DNA transfection efficiency in HEK293 cells [1]: 2.2%
- Absolute mRNA transfection efficiency in HEK293 cells [2]: 0.0%

SMILES: CCCCCCCCCCCCCCCCCCNc1nc(NCCCCCCCCCCCCC)nc(NCCN2CCCC2)n1 [Compound N13N18D3]
- Absolute DNA transfection efficiency in HEK293 cells [1]: 0.5%
- Absolute mRNA transfection efficiency in HEK293 cells [2]: 21.5%

SMILES: CCCCCCCCCCCCNc1nc(NCCCCCCC)nc(NCCN2CCCC2)n1 [Compound N7N12D3]
- Absolute DNA transfection efficiency in HEK293 cells [1]: 3.5%
- Absolute mRNA transfection efficiency in HEK293 cells [2]: 6.3%

SMILES: CCCCCCCCCCCCNc1nc(NCCCN2CCOCC2)nc(N(CCCCCCCCCCCC)CCCCCCCCCCCC)n1 [N12^2N12D8]
- Absolute DNA transfection efficiency in HEK293 cells [1]: 0.6%
- Absolute mRNA transfection efficiency in HEK293 cells [2]: 3.2%

SMILES: CCCCCCCNc1nc(NCCCCCCC)nc(NCCN2CCCC2)n1 [Compound N7N7D3]
- Absolute DNA transfection efficiency in HEK293 cells [1]: 0.0%
- Absolute mRNA transfection efficiency in HEK293 cells [2]: 0.0%

SMILES: CCCCCCCCCCCCCNc1nc(NCCCCCCCCCCC)nc(NCCCN2CCOCC2)n1 [Compound N11N13D8]
- Absolute DNA transfection efficiency in HEK293 cells [1]: 0.0%
- Absolute mRNA transfection efficiency in HEK293 cells [2]: 0.6%

— US20230123334A1, “AMINO LIPID COMPOUND, PREPARATION METHOD THEREFOR, AND APPLICATION THEREOF” (SHENZHEN SHENXIN BIOTECHNOLOGY CO., LTD., priority 2020, published 2023)
